This passage reports IC50 and Ki results from ChEMBL document CHEMBL2169777, “Chemical modulators working at pharmacological interface of target proteins” (Bioorg Med Chem, 2012).

One may read the IC50 as the concentration that gives 50% inhibition. A word on the Ki: it is the dissociation constant of the complex between target and ligand, obtained from inhibition or displacement. A high value points to weaker binding.

The target in one experiment is Beta-nerve growth factor (Homo sapiens, UniProt P01138). As to the kind of experiment: Inhibition of NGF binding to p75NTR.
Sequence of Beta-nerve growth factor (P01138 122-241 limits assumed): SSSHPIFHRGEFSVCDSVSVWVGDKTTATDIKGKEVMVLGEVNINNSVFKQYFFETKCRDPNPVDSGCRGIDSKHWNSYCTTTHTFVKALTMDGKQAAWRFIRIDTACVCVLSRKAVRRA
Experiment [1] is described as follows: Inhibition of IL2 receptor binding to IL2 alpha receptor by scintillation proximity assay.

The structures appear in SMILES notation.

For `Cc1cc2nc3c(=O)[nH]c(=O)nc-3n(C)c2cc1C=O`, at Beta-nerve growth factor, the IC50 amounted to 1000 nM.

`COC(=O)[C@H](Cc1ccc(C#Cc2ccccc2)cc1)NC(=O)C[C@H]1CCCN(C(=N)N)C1` had an IC50 in experiment [1] of 3000 nM.

`CC(C)C[C@@H](NC(=N)N)C(=O)NCC(=O)N1CCC(c2cc(-c3ccc(OCc4ccc(C(=O)O)o4)c(Cl)c3Cl)nn2C)CC1` returned a Ki in experiment [1] of 60 nM.
